Assay results as given in the METLIN SMRT retention time set (Domingo-Almenara et al. 2019).

Test: gradient 5% acetonitrile 3 min, to 50% in 2 min, to 85% in 15 min, held 3 min, 100 µL/min
Settings: column: Zorbax Extend-C18 2.1 x 50 mm; eluents: water / acetonitrile, 0.1% formic acid
In short: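 The system's dead and dwell volumes were 40 μL and 900 μL, with a Zorbax Extend-C18 column (2.1 × 50 mm, 1.8 μm) run at 100 μL/min in water and acetonitrile containing 0.1% formic acid each. Pure standards were analyzed in mixtures of ~100 molecules by HPLC–quadrupole time-of-flight mass spectrometry in positive and negative ionization mode. Retention time was assigned from computationally picked, manually inspected adduct peaks.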

SMILES | RP-LC retention time [s]
CC(=O)NCc1cn[nH]c1-c1ccc(Cl)cc1 | 625
CCN1CCN(CCNC(=O)C2CCCN(c3ncc(-c4ccc(F)cc4)cn3)C2)CC1 (stereo not drawn) | 632
O=C(Cn1cncn1)N1CCC(c2nnc(C(F)(F)F)o2)CC1 | 588
Cc1cc(C)c(S(=O)(=O)N2CCC(c3cc4n(n3)CCCN(C)C4=O)CC2)cc1C | 888
CC1=CC(=O)CC(C)(C)C1(O)/C=C/C(C)=C\C(=O)O (stereo not drawn) | 683
Cc1cc2nc(C(F)(F)F)c(=O)n(C(C)C(=O)NCCCN3CCN(C)CC3)c2cc1C (stereo not drawn) | 652
Cc1ccc(NC(=O)C2CC(=O)N(CCc3c[nH]c4ccc(F)cc34)C2)c(C)c1 (stereo not drawn) | 847
O=C(Cc1nnc2c(-c3nc(C4CC4)no3)cccn12)NC1CCCC1 | 661
Cc1ccc(CNC(=O)C2(C)CCCN(C(=O)NCc3ccc(F)cc3)C2)cc1 (stereo not drawn) | 864
Cc1noc(COC2CCCN(C(=O)C3(c4ccccc4)CC3)C2)n1 (stereo not drawn) | 791
O=c1c2scc(-c3ccc(Br)cc3)c2ncn1Cc1cccnc1 | 775
CC(C)NC(=O)c1cc(N2CCCC2)n2nccc2n1 | 784
CCc1cc(C(=O)N2CCN(CC)CC2)nc2cc(-c3ccccn3)nn12 | 580
Cc1nc(Cn2cccc2C(=O)N2CCN(c3cccc(Cl)c3)CC2)no1 | 974
O=C(NC1CC1)c1cccc(OCC2CCCN(C(=O)C3CCC3)C2)c1 (stereo not drawn) | 789
Cc1cccc(S(=O)(=O)N2CCCC(Cn3c(C4CC4)nc4cccnc43)C2)c1 (stereo not drawn) | 791
CCCNc1cc(N2CCCC(CCC(=O)NCCOC)C2)ncn1 (stereo not drawn) | 592
Cc1cccc(S(=O)(=O)N2CCN(c3cc(C)nc(NC4CCCCC4)n3)CC2)c1 | 860
FC(F)(F)c1cccc(CN2CCCN(c3ncccc3-c3nc(C4CC4)no3)CC2)c1 | 765
CCN1CCN(c2ncc3c(n2)CCN(Cc2ccc(Br)s2)C3)CC1 | 568
CCCNC(=O)C1CCN(c2ccc(SCC(=O)Nc3cc(C)cc(C)c3)nn2)CC1 | 685
CCC(NC(=O)c1ccc2c(c1)nc1n2CCN(C2CCCCC2)C1=O)c1cccs1 (stereo not drawn) | 851
Cc1ccc(-c2nnc(-c3nc(NCc4cccnc4)c4ccccc4n3)o2)cc1 | 676

SMILES | RP-LC retention time [s]
O=C(NCc1ccc(F)cc1)C1CCN(C(=O)C2Sc3ccccc3NC2=O)CC1 (stereo not drawn) | 804
CCn1nccc1-c1cccc(-c2noc(-c3ccc(C)cc3)n2)c1 | 1310
Cc1ccc(-c2nc(CN3CCOCC3)c(C)o2)cc1 | 640
CCCCC(=O)Nc1nnc(SCc2nnc(-c3ccccc3)o2)s1 | 854
O=c1n(Cc2cc(F)cc(F)c2)nc2c(S(=O)(=O)N3CCc4ccccc4C3)cccn12 | 966
Cc1noc(-c2cccc(OC3CN(C(=O)c4cccn4C)C3)c2)n1 | 898
O=C(CCCN1CCN(Cc2ccc(F)cc2)C(=O)C1=O)NCc1ccc(F)cc1 | 721
OCCN1CCN(CCCN2c3ccccc3C=Cc3ccccc32)CC1 | 692
C#CCSc1nc2ccccc2c2nc(-c3ccncc3)nn12 | 977
Cc1cc2nnc(SCC(=O)Nc3nc(-c4ccccc4)cs3)n2c2ccccc12 | 964
Cc1cc(NC(=O)Nc2ccc3c(c2)CCN3S(C)(=O)=O)ccc1Br | 943
CCCn1c(=O)sc2cc(S(=O)(=O)N3CCC(C(=O)Nc4cccc(CC)c4)CC3)ccc21 | 969
O=C(CN1C(=O)NC(c2ccc(Cl)cc2)C2=C1COC2=O)Nc1ccc(C(F)(F)F)cc1 (stereo not drawn) | 895
Cc1ncsc1CN1CCc2nn(Cc3ccccc3)c(=O)n2CC1 | 604
O=C(CSc1nnnn1-c1ccccc1)c1ccc2c(c1)OCCO2 | 868
Cc1cc(NC(=O)C2CCc3nc(N4CCOCC4)ncc3C2)ccc1Cl (stereo not drawn) | 897
O=C(c1cccnc1)N1CCC(c2nc(-c3ccccc3)no2)C1 (stereo not drawn) | 726
Cn1cc(C(=O)NCc2ccc(N3CCCCC3)cc2)c2cccnc21 | 576
CCCOc1nn(CCC)cc1C(=O)N1CCCC1 | 700
Cn1c(=O)c(SCC(=O)NC2CCN(Cc3ccccc3)CC2)nc2ccccc21 | 624
O=C(Nc1ccc(F)c(Cl)c1)C1CCN(S(=O)(=O)c2ccc3[nH]c(=O)ccc3c2)CC1 | 812
Fc1ccc(-c2nc(CC3CCNC3)no2)cc1 (stereo not drawn) | 621

Second part, the compound after the results:

RP-LC retention time [s] | SMILES
1100 | COc1ccc(N2CCN(c3cc(SCC(=O)Nc4ccc(F)cc4)ncn3)CC2)cc1
1170 | COC(=O)c1ccc(Cn2nc(C3CC3)c3cnn(-c4cccc(Cl)c4)c3c2=O)cc1
893 | COc1ccc(N2C=C(C#N)S(=O)(=O)c3cc(F)ccc32)c(OC)c1
1000 | COc1ccc(N2CC(c3noc(-c4ccc(C)cc4C)n3)CC2=O)cc1OC (stereo not drawn)
818 | Cc1nc2c(NC(=O)COc3ccc(F)c(F)c3)cccn2n1
680 | CCN1CCCn2cc(S(=O)(=O)Nc3ccc(OC)cc3)cc2C1=O
1080 | COc1ccc(-c2ccc(=O)n(Cc3nc(-c4cccc(Cl)c4)no3)n2)cc1
685 | COc1ccc(C(=O)CC2(O)C(=O)Nc3ccc(C)cc32)c(OC)c1 (stereo not drawn)
802 | COc1cccc(CNC(=O)C2(C)CCCN(C(=O)Nc3ccc4c(c3)OCCO4)C2)c1 (stereo not drawn)
965 | COc1cc(C(=O)NC(C)COc2ccc(C(C)C)cc2)cc(OC)c1OC (stereo not drawn)
1030 | CC(C)c1cc(C(=O)Nc2ccc(C#N)cc2)nc2ccnn12
775 | COc1ccc(OC)c(NC(=O)c2cc(C3CC3)[nH]n2)c1
1200 | CCn1c(C(=O)NCc2ccc(C)cc2)cc2sc(Cl)cc21
1040 | CCCC(=O)N1CCc2c([nH]c3ccc(OC)cc23)C1c1ccc(F)cc1 (stereo not drawn)
1070 | COc1cccc(-c2noc(CN3C(=O)COc4ccc(Cl)cc43)n2)c1
769 | CCOC(=O)c1nn(-c2cc(C(=O)OC)cc(C(=O)OC)c2)cc1O
766 | CCc1ccc(Nc2cc(C(=O)N3CCCCC3)nc3cc(OC)c(OC)cc23)cc1
1020 | COc1ccc2c(c1)C1CC(C)(O2)N(C)C(=O)C1S(=O)(=O)c1ccc(C)cc1 (stereo not drawn)
802 | CCN1c2ccc(F)cc2C(=O)NC12CCN(C(=O)c1ccc(OC)cc1C)CC2
732 | COCCn1cc(CCNC(=O)Nc2cccc(F)c2)c2cccnc21
780 | CNC(=O)c1sc2nc(-c3cccc(OC)c3)c(NC(C)(C)C)n2c1C
1020 | Cc1c(C(=O)Nc2ccnn2Cc2ccco2)oc2cc(Br)ccc12
1090 | COc1ccc(-c2noc(Cc3nnc(-c4ccc(C)c(C)c4)o3)n2)cc1
